Reference: article PMC4867616, “Imaging of Cerebral Amyloid Angiopathy with Bivalent ^99mTc-Hydroxamamide Complexes” (Scientific Reports, 2016)
Several values for one entry are separate records, joined by “and”; a condition that tells them apart may be missing. Equal values may be shown once.

Assay: Ex vivo biodistribution in normal mice
Design: species or system ddY mice
Details: i.v., mean (SD), 5 animals
Procedure: To evaluate brain uptake of ^99mTc-Ham complexes, biodistribution experiments of ^99mTc-Ham complexes were performed in normal mice. We selected ^18F-florbetapir as a control and compared the results of ^99mTc-Ham complexes with that of ^18F-florbetapir (Fig. 2). The brain uptake of [^99mTc]SB1A, [^99mTc]SB2A, [^99mTc]BT1B, and [^99mTc]BT2B at 2 min postinjection was 0.37, 0.28, 0.36, and 0.37% injected dose (ID)/g, respectively. The radioactivity in the brains remained low until 60 min postinjection. The results of the biodistribution study are shown in Table S1 in Supplementary information.
A saline solution (100 μL) of ^99mTc-Ham complexes (20 kBq) containing EtOH (10 μL) was injected directly into the tail vein of ddY mice (male, 5 weeks old). The mice were sacrificed at 2, 10, 30, and 60 min postinjection. The organs of interest were removed and weighed, and radioactivity was measured using a γ counter (PerkinElmer). The %ID/g of samples was calculated by comparing the sample counts with the count of the diluted initial dose.
*Corresponding author: M. Ono. Address: 46-29 Yoshida Shimoadachi-cho, Sakyo-ku, Kyoto 606-8501, Japan, Phone: +81-75-753-4608, Fax: +81-75-753-4568, E-mail: ono@pharm.kyoto-u.ac.jp. Ex vivo biodistribution in normal mice. A saline solution (100 μL) of ^99mTc-Ham complexes (20 kBq) containing EtOH (10 μL) was injected directly into the tail vein of ddY mice (male, 5 weeks old). The mice were sacrificed at 2, 10, 30, and 60 min postinjection. The organs of interest were removed and weighed, and radioactivity was measured using a γ counter (Wallac 1470 Wizard; PerkinElmer, Massachusetts, USA). Percentage dose per organ was calculated by comparing the tissue counts to suitably diluted aliquots of the injected material. The %dose/g of samples was calculated by comparing the sample counts with the count of the diluted initial dose.

Row | Biodistribution of radioactivity, Heart (2 min after injection) | Biodistribution of radioactivity, Intestine (2 min after injection) | Biodistribution of radioactivity, Kidney (2 min after injection) | Biodistribution of radioactivity, Liver (2 min after injection) | Biodistribution of radioactivity, Lung (2 min after injection) | Biodistribution of radioactivity, Pancreas (2 min after injection) | Biodistribution of radioactivity, Spleen (2 min after injection) | Biodistribution of radioactivity, Stomach (2 min after injection) | Biodistribution of radioactivity, Heart (10 min after injection) | Biodistribution of radioactivity, Intestine (10 min after injection) | Biodistribution of radioactivity, Kidney (10 min after injection) | Biodistribution of radioactivity, Liver (10 min after injection) | Biodistribution of radioactivity, Lung (10 min after injection) | Biodistribution of radioactivity, Pancreas (10 min after injection) | Biodistribution of radioactivity, Spleen (10 min after injection) | Biodistribution of radioactivity, Stomach (10 min after injection) | Biodistribution of radioactivity, Heart (30 min after injection) | Biodistribution of radioactivity, Intestine (30 min after injection) | Biodistribution of radioactivity, Kidney (30 min after injection) | Biodistribution of radioactivity, Liver (30 min after injection) | Compound | further results
1 | 12.64 (1.59) % injected dose per gram | 1.52 (0.25) % injected dose per gram | 5.03 (0.52) % injected dose per gram | 25.52 (1.67) % injected dose per gram | 14.35 (1.86) % injected dose per gram | 3.35 (0.60) % injected dose per gram | 10.76 (0.96) % injected dose per gram | 3.15 (0.56) % injected dose per organ | 6.57 (0.92) % injected dose per gram | 1.71 (0.11) % injected dose per gram | 3.57 (0.41) % injected dose per gram | 29.35 (2.85) % injected dose per gram | 7.79 (0.50) % injected dose per gram | 2.12 (0.08) % injected dose per gram | 11.24 (2.26) % injected dose per gram | 8.78 (1.32) % injected dose per organ | 8.58 (1.32) % injected dose per gram | 2.64 (0.36) % injected dose per gram | 3.61 (0.29) % injected dose per gram | 27.04 (3.90) % injected dose per gram | CN(C)c1ccc(/C=C/c2ccc(C3=N[O][99Tc-]4(=[O])([NH]3)[NH2+]C(c3ccc(/C=C/c5ccc(N(C)C)cc5)cc3)=N[O]4)cc2)cc1 (single isomer, unassigned) [[^99mTc]SB2A] | Biodistribution of radioactivity, Lung (30 min after injection): 7.26 (1.02) % injected dose per gram; Biodistribution of radioactivity, Pancreas (30 min after injection): 2.06 (0.11) % injected dose per gram; Biodistribution of radioactivity, Spleen (30 min after injection): 8.91 (3.26) % injected dose per gram; Biodistribution of radioactivity, Stomach (30 min after injection): 16.13 (2.33) % injected dose per organ; Biodistribution of radioactivity, Heart (60 min after injection): 8.27 (1.19) % injected dose per gram; Biodistribution of radioactivity, Intestine (60 min after injection): 4.05 (0.55) % injected dose per gram; Biodistribution of radioactivity, Kidney (60 min after injection): 3.39 (0.20) % injected dose per gram; Biodistribution of radioactivity, Liver (60 min after injection): 24.95 (3.38) % injected dose per gram; Biodistribution of radioactivity, Lung (60 min after injection): 6.48 (0.49) % injected dose per gram; Biodistribution of radioactivity, Pancreas (60 min after injection): 1.83 (0.07) % injected dose per gram; Biodistribution of radioactivity, Spleen (60 min after injection): 7.58 (2.60) % injected dose per gram; Biodistribution of radioactivity, Stomach (60 min after injection): 14.72 (4.51) % injected dose per organ
2 | 9.48 (4.83) % injected dose per gram | 1.32 (0.21) % injected dose per gram | 6.04 (0.96) % injected dose per gram | 23.21 (5.72) % injected dose per gram | 22.06 (3.09) % injected dose per gram | 2.81 (0.35) % injected dose per gram | 10.83 (1.58) % injected dose per gram | 0.69 (0.12) % injected dose per organ | 8.62 (2.34) % injected dose per gram | 1.97 (0.26) % injected dose per gram | 5.02 (0.40) % injected dose per gram | 33.78 (6.07) % injected dose per gram | 11.97 (1.01) % injected dose per gram | 2.19 (0.35) % injected dose per gram | 14.49 (3.50) % injected dose per gram | 3.77 (0.56) % injected dose per organ | 6.67 (1.52) % injected dose per gram | 6.44 (1.04) % injected dose per gram | 3.47 (0.57) % injected dose per gram | 31.45 (3.39) % injected dose per gram | CN(C)c1ccc(-c2nc3ccc(C4=N[O][99Tc-]5(=[O])([NH]4)[NH2+]C(c4ccc6nc(-c7ccc(N(C)C)cc7)sc6c4)=N[O]5)cc3s2)cc1 [[^99mTc]BT2B] | Biodistribution of radioactivity, Blood (2 min after injection): 23.15 (4.78) % injected dose per gram; Biodistribution of radioactivity, Brain (2 min after injection): 0.37 % injected dose per gram and 0.37 (0.11) % injected dose per gram; Biodistribution of radioactivity, Blood (10 min after injection): 10.05 (1.78) % injected dose per gram; Biodistribution of radioactivity, Brain (10 min after injection): 0.20 (0.04) % injected dose per gram; Biodistribution of radioactivity, Blood (30 min after injection): 3.72 (0.49) % injected dose per gram; Biodistribution of radioactivity, Brain (30 min after injection): 0.10 (0.02) % injected dose per gram; Biodistribution of radioactivity, Lung (30 min after injection): 5.38 (1.16) % injected dose per gram; Biodistribution of radioactivity, Pancreas (30 min after injection): 1.14 (0.25) % injected dose per gram; Biodistribution of radioactivity, Spleen (30 min after injection): 10.91 (1.59) % injected dose per gram; Biodistribution of radioactivity, Stomach (30 min after injection): 6.47 (1.37) % injected dose per organ; Biodistribution of radioactivity, Blood (60 min after injection): 1.81 (0.44) % injected dose per gram; Biodistribution of radioactivity, Brain (60 min after injection): 0.05 (0.01) % injected dose per gram; Biodistribution of radioactivity, Heart (60 min after injection): 7.08 (1.34) % injected dose per gram; Biodistribution of radioactivity, Intestine (60 min after injection): 13.90 (1.52) % injected dose per gram; Biodistribution of radioactivity, Kidney (60 min after injection): 3.13 (0.48) % injected dose per gram; Biodistribution of radioactivity, Liver (60 min after injection): 35.76 (3.34) % injected dose per gram; Biodistribution of radioactivity, Lung (60 min after injection): 4.50 (0.60) % injected dose per gram; Biodistribution of radioactivity, Pancreas (60 min after injection): 1.27 (0.28) % injected dose per gram; Biodistribution of radioactivity, Spleen (60 min after injection): 4.80 (0.63) % injected dose per gram; Biodistribution of radioactivity, Stomach (60 min after injection): 4.20 (1.21) % injected dose per organ
